Laboratory results from patent publication US11548888B2, “KRas G12C inhibitors” (Mirati Therapeutics, Inc., priority 2019, dated 2023).

Target: T1, KRas G12C (Homo sapiens, UniProt P01116, G12C)
T1 construct: NCI-H358 cells (ATCC CRL-5807) express KRas G12C
Assay: Inhibition of KRas G12C-dependent cell growth: Phospho-ERK in NCI-H358 cells
Format: cell-based
Settings: NCI-H358 cells expressing KRas G12C; Phospho-ERK (Thr202/Tyr204) normalized to GAPDH; 3 hours compound; 4 parameter fit
Experimental: The cellular inhibition of KRAs G12C by exemplary compounds of the present invention was determined by measuring the amount of a downstream marker of KRas activity, phosphorylated ERK (“Phospho-ERK”).
NCI-H358 cells (ATCC CRL-5807) express KRas G12C and were grown in RPMI medium supplemented with 10% fetal bovine serum, penicillin/streptomycin and 10 mM HEPES. Cells were plated in poly-D-Lysine coated 96-well plates at a concentration of 50,000 cells/well and allowed to attach for 8-12 hours. Diluted compounds were then added at a final concentration of 0.5% DMSO. After 3 hours, the medium was removed, 150 μL of 4% formaldehyde was added and the plates were incubated for 20 minutes. The plates were washed with PBS, and permeabilized using 150 μL of ice cold 100% methanol for 10 minutes. Non-specific antibody binding to the plates was blocked using 100 μL Licor Blocking Buffer (Li-Cor Biotechnology, Lincoln Nebr.) for 1 hour at room temperature. Positive control samples and samples lacking cells were parallel processed with test samples as standards.
The amount Phospho-ERK was determined using an antibody specific for the phosphorylated form of ERK and compared to the amount of GAPDH. Primary antibodies used for detection were added as follows: Phospho-ERK (Cell Signaling cs9101) diluted 1:500 and GAPDH (Millipore MAB374) diluted 1:5000 in Licor block+0.05% Tween 20. The plates were incubated for 2 hours at room temperature. The plates were washed with PBS+0.05% Tween 20.
Secondary antibodies used to visualize primary antibodies were added as follows: Anti-rabbit-680 diluted 1:1000 and Anti-mouse-800 diluted 1:1000 in Licor Block+0.05% Tween 20 and incubated for 1 hour at room temperature. The plates were washed with PBS+0.05% Tween 20. A 100 μL aliquot of PBS was added to each well and the plates were read on a LICOR AERIUS plate reader.
The pERK(Thr202/Tyr204) signal was normalized with the GAPDH signal and percent of DMSO control values were calculated. IC50 values were generated using a 4 parameter fit of the dose response curve.

T1 sequence (P01116 1-188 isoform P01116-2 G12C): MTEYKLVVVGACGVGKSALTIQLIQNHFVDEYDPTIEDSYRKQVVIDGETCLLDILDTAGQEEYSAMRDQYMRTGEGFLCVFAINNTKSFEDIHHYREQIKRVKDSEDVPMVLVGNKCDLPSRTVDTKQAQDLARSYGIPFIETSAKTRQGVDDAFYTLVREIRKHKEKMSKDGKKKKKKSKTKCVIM

| Structure (SMILES) | IC50 |
| --- | --- |
| Cc1cccc2cccc(-c3ncc4c(N5CCN(C(=O)/C=C/CF)[C@@H](CC#N)C5)nc(OCCCN5C[C@@H]6C[C@H]5CO6)nc4c3F)c12 [Example 30, 2-[(2S)-1-[(E)-4-fluorobut-2-enoyl]-4-[8-fluoro-7-(8-methyl-1-naphthyl)-2-[3-[(1S,4S)-2-oxa-5-azabicyclo[2.2.1]heptan-5-yl]propoxy]pyrido[4,3-d]pyrimidin-4-yl]piperazin-2-yl]acetonitrile] | 0.131 µM |
| C=C(F)C(=O)N1CCN(c2nc(OC[C@@H]3CCCN3C)nc3c(Cl)c(-c4cccc5cccc(C)c45)ncc23)C[C@@H]1CC#N [Example 32, 2-[(2S)-4-[8-chloro-7-(8-methyl-1-naphthyl)-2-[[(2S)-1-methylpyrrolidin-2-yl]methoxy]pyrido[4,3-d]pyrimidin-4-yl]-1-(2-fluoroprop-2-enoyl)piperazin-2-yl]acetonitrile] | 0.137 µM |
| C=C(F)C(=O)N1CCN(c2nc(OC[C@H]3CCCN3C)nc3c(F)c(-c4cccc5cccc(Cl)c45)ncc23)C[C@@H]1CC#N [Example 35, 2-[(2S)-4-[7-(8-chloro-1-naphthyl)-8-fluoro-2-[[(2R)-1-methylpyrrolidin-2-yl]methoxy]pyrido[4,3-d]pyrimidin-4-yl]-1-(2-fluoroprop-2-enoyl)piperazin-2-yl]acetonitrile] | 0.027 µM |
| C=C(F)C(=O)N1CCN(c2nc(OCCCN3C[C@@H]4C[C@H]3CO4)nc3c(F)c(-c4cncc5cccc(Cl)c45)ncc23)C[C@@H]1CC#N [Example 37, 2-[(2S)-4-[7-(5-chloro-4-isoquinolyl)-8-fluoro-2-[3-[(1S,4S)-2-oxa-5-azabicyclo[2.2.1]heptan-5-yl]propoxy]pyrido[4,3-d]pyrimidin-4-yl]-1-(2-fluoroprop-2-enoyl)piperazin-2-yl]acetonitrile] | 0.168 µM |
| Cc1cccc2cncc(-c3ncc4c(N5CCN(C(=O)/C=C/CF)[C@@H](CC#N)C5)nc(OCCCN5C[C@@H]6C[C@H]5CO6)nc4c3F)c12 [Example 39, 2-[(2S)-1-[(E)-4-fluorobut-2-enoyl]-4-[8-fluoro-7-(5-methyl-4-isoquinolyl)-2-[3-[(1S,4S)-2-oxa-5-azabicyclo[2.2.1]heptan-5-yl]propoxy]pyrido[4,3-d]pyrimidin-4-yl]piperazin-2-yl]acetonitrile] | 0.544 µM |
| C=CC(=O)N1CCN(c2ncnc3cc(-c4cccc5cccc(C)c45)ncc23)C[C@@H]1CC#N [Example 40, (S)-2-(1-acryloyl-4-(7-(8-methylnaphthalen-1-yl)pyrido[4,3-d]pyrimidin-4-yl)piperazin-2-yl)acetonitrile] | 0.496 µM |
| CN1C[C@H](F)C[C@H]1COc1nc(N2CCN(C(=O)/C=C/CF)[C@@H](CC#N)C2)c2cnc(-c3cccc4cccc(Cl)c34)c(F)c2n1 [Example 43, 2-[(2S)-4-[7-(8-chloro-1-naphthyl)-8-fluoro-2-[[(2S,4R)-4-fluoro-1-methyl-pyrrolidin-2-yl]methoxy]pyrido[4,3-d]pyrimidin-4-yl]-1-[(E)-4-fluorobut-2-enoyl]piperazin-2-yl]acetonitrile] | 0.004 µM |
| C=C(F)C(=O)N1CCN(c2nc(OC[C@@H]3CC(F)(F)CN3C)nc3c(F)c(-c4cncc5cccc(C)c45)ncc23)C[C@@H]1CC#N [Example 45, 2-((S)-4-(2-(((S)-4,4-difluoro-1-methylpyrrolidin-2-yl)methoxy)-8-fluoro-7-(5-methylisoquinolin-4-yl)pyrido[4,3-d]pyrimidin-4-yl)-1-(2-fluoroacryloyl)piperazin-2-yl)acetonitrile] | 0.205 µM |
| C=C(F)C(=O)N1CCN(c2nc(OC[C@@H]3CC(F)(F)CN3C)nc3c(F)c(-c4cncc5cccc(Cl)c45)ncc23)C[C@@H]1CC#N [Example 46, 2-((S)-4-(7-(5-chloroisoquinolin-4-yl)-2-(((S)-4,4-difluoro-1-methylpyrrolidin-2-yl)methoxy)-8-fluoropyrido[4,3-d]pyrimidin-4-yl)-1-(2-fluoroacryloyl)piperazin-2-yl)acetonitrile] | 0.094 µM |
| CN1CC(F)(F)C[C@H]1COc1nc(N2CCN(C(=O)/C=C/CF)[C@@H](CC#N)C2)c2cnc(-c3cncc4cccc(Cl)c34)c(F)c2n1 [Example 47, 2-((S)-4-(7-(5-chloroisoquinolin-4-yl)-2-(((S)-4,4-difluoro-1-methylpyrrolidin-2-yl)methoxy)-8-fluoropyrido[4,3-d]pyrimidin-4-yl)-1-((E)-4-fluorobut-2-enoyl)piperazin-2-yl)acetonitrile] | 0.03 µM |

Continued by falling IC50, values first:

| IC50 | Structure (SMILES) |
| --- | --- |
| 0.338 µM | C=C(F)C(=O)N1CCN(c2nc(OCCCN3C[C@@H]4C[C@H]3CO4)nc3c(F)c(-c4cncc5cccc(C)c45)ncc23)C[C@@H]1CC#N [Example 38, 2-[(2S)-4-[8-fluoro-7-(5-methyl-4-isoquinolyl)-2-[3-[(1S,4S)-2-oxa-5-azabicyclo[2.2.1]heptan-5-yl]propoxy]pyrido[4,3-d]pyrimidin-4-yl]-1-(2-fluoroprop-2-enoyl)piperazin-2-yl]acetonitrile] |
| 0.27 µM | N#CC[C@H]1CN(c2nc(OCCCN3C[C@@H]4C[C@H]3CO4)nc3c(F)c(-c4cncc5cccc(Cl)c45)ncc23)CCN1C(=O)/C=C/CF [Example 48, 2-[(2S)-4-[7-(5-chloro-4-isoquinolyl)-8-fluoro-2-[3-[(1S,4S)-2-oxa-5-azabicyclo[2.2.1]heptan-5-yl]propoxy]pyrido[4,3-d]pyrimidin-4-yl]-1-[(E)-4-fluorobut-2-enoyl]piperazin-2-yl]acetonitrile] |
| 0.216 µM | C=CC(=O)N1CCN(c2ncnc3c(F)c(-c4cccc5cccc(C)c45)ncc23)C[C@@H]1CC#N [Example 41, 2-[(2S)-4-[8-fluoro-7-(8-methyl-1-naphthyl)pyrido[4,3-d]pyrimidin-4-yl]-1-prop-2-enoyl-piperazin-2-yl]acetonitrile] |
| 0.079 µM | C=C(F)C(=O)N1CCN(c2nc(OC[C@@H]3CCCN3C)nc3c(C)c(-c4cccc5cccc(C)c45)ncc23)C[C@@H]1CC#N [Example 33, 2-[(2S)-1-(2-fluoroprop-2-enoyl)-4-[8-methyl-7-(8-methyl-1-naphthyl)-2-[[(2S)-1-methylpyrrolidin-2-yl]methoxy]pyrido[4,3-d]pyrimidin-4-yl]piperazin-2-yl]acetonitrile] |
| 0.045 µM | C=C(F)C(=O)N1CCN(c2nc(OC[C@@H]3C[C@@H](OC)CN3C)nc3c(F)c(-c4cncc5cccc(C)c45)ncc23)C[C@@H]1CC#N [Example 34, 2-[(2S)-4-[8-fluoro-2-[[(2S,4R)-4-methoxy-1-methyl-pyrrolidin-2-yl]methoxy]-7-(5-methyl-4-isoquinolyl)pyrido[4,3-d]pyrimidin-4-yl]-1-(2-fluoroprop-2-enoyl)piperazin-2-yl]acetonitrile] |
| 0.044 µM | CO[C@@H]1C[C@@H](COc2nc(N3CCN(C(=O)/C=C/CF)[C@@H](CC#N)C3)c3cnc(-c4cncc5cccc(C)c45)c(F)c3n2)N(C)C1 [Example 36, 2-[(2S)-1-[(E)-4-fluorobut-2-enoyl]-4-[8-fluoro-2-[[(2S,4R)-4-methoxy-1-methyl-pyrrolidin-2-yl]methoxy]-7-(5-methyl-4-isoquinolyl)pyrido[4,3-d]pyrimidin-4-yl]piperazin-2-yl]acetonitrile] |
| 0.033 µM | N#CC[C@H]1CN(c2nc(OCCCN3C[C@@H]4C[C@H]3CO4)nc3c(F)c(-c4cccc5cccc(Cl)c45)ncc23)CCN1C(=O)/C=C/CF [Example 31, 2-[(2S)-4-[7-(8-chloro-1-naphthyl)-8-fluoro-2-[3-[(1S,4S)-2-oxa-5-azabicyclo[2.2.1]heptan-5-yl]propoxy]pyrido[4,3-d]pyrimidin-4-yl]-1-[(E)-4-fluorobut-2-enoyl]piperazin-2-yl]acetonitrile] |
| 0.018 µM | C=C(F)C(=O)N1CCN(c2nc(OC[C@@H]3C[C@@H](F)CN3C)nc3c(F)c(-c4cccc5cccc(Cl)c45)ncc23)C[C@@H]1CC#N [Example 42, 2-[(2S)-4-[7-(8-chloro-1-naphthyl)-8-fluoro-2-[[(2S,4R)-4-fluoro-1-methyl-pyrrolidin-2-yl]methoxy]pyrido[4,3-d]pyrimidin-4-yl]-1-(2-fluoroprop-2-enoyl)piperazin-2-yl]acetonitrile] |
| 0.015 µM | COC/C=C/C(=O)N1CCN(c2nc(OC[C@@H]3C[C@@H](F)CN3C)nc3c(F)c(-c4cccc5cccc(Cl)c45)ncc23)C[C@@H]1CC#N [Example 44, 2-[(2S)-4-[7-(8-chloro-1-naphthyl)-8-fluoro-2-[[(2S,4R)-4-fluoro-1-methyl-pyrrolidin-2-yl]methoxy]pyrido[4,3-d]pyrimidin-4-yl]-1-[(E)-4-methoxybut-2-enoyl]piperazin-2-yl]acetonitrile] |
